From PMC11600167 (JACS Au, 2024)

Tests used:
Assay in all cases: glycan microarray on Cu2O@Ag slides
Format in all cases: binding
[1] = molecular target: T1, hGal-3 (human galectin-3) (Homo sapiens, UniProt P17931); conditions: immobilised glycan via azide linker; hGal-3 25 μg/mL
T1 construct: gene LGALS3; chimera-type galectin; construct details only in supplement

[2] = molecular target: T2, hGal-7 (human galectin-7) (Homo sapiens, UniProt P47929); conditions: immobilised glycan via azide linker; hGal-7 25 μg/mL
T2 construct: gene LGALS7; construct details only in supplement
T2 sequence (P47929 whole entry): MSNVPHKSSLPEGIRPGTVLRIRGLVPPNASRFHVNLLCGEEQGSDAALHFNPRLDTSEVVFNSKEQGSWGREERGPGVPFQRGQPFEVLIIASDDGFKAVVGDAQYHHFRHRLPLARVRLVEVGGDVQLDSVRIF

[3] = molecular target: T3, hGal-1 (human galectin-1) (Homo sapiens, UniProt P09382); conditions: immobilised glycan via azide linker; hGal-1 25 μg/mL
T3 construct: gene LGALS1; dimeric lectin; construct details only in supplement
T3 sequence (P09382 2-135): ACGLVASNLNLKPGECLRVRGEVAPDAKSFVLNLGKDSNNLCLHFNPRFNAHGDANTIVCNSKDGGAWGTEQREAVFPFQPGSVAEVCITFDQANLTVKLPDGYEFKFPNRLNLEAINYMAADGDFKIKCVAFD

T1 sequence (P17931 2-250): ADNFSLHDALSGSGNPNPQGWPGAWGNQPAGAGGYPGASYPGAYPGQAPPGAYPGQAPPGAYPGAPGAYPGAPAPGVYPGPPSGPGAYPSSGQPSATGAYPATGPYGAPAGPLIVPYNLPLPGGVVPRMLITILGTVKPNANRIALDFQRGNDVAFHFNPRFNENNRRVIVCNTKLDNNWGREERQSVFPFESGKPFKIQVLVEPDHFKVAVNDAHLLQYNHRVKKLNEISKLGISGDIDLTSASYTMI

SMILES: CC(=O)N[C@H]1[C@H](O[C@H]2[C@@H](O)[C@@H](CO)O[C@@H](O[C@H]3[C@H](O)[C@@H](O)C(O)O[C@@H]3CO)[C@@H]2O)O[C@H](CO)[C@@H](O[C@@H]2O[C@H](CO)[C@H](O)[C@H](O)[C@H]2O)[C@@H]1O (stereo partly drawn) [LNnT]
- glycan microarray on Cu2O@Ag slides [1]: The stronger affinity of LNnT compared to LNT

SMILES: CC(=O)N[C@H]1[C@H](O[C@H]2[C@@H](O)[C@@H](CO)O[C@@H](O[C@H]3[C@H](O)[C@@H](O)C(O)O[C@@H]3CO)[C@@H]2O)O[C@H](CO)[C@@H](O)[C@@H]1O[C@@H]1O[C@H](CO)[C@H](O)[C@H](O)[C@H]1O (stereo partly drawn) [LNT]
- glycan microarray on Cu2O@Ag slides [2]: with LNT showing the strongest binding affinity
- glycan microarray on Cu2O@Ag slides [3]: LNT and LNnT, respectively) further increased the binding affinity
